# “Also recorded” adds a separate entry of the source.
# Assays:
# [1] = type: physicochemical
# Experimental: Solubilities of different polymorphs were determined by adding excess drug to 10 ml of 50% v/v aqueous ethanol in glass vials, followed by equilibration with occasional shaking at different temperatures (4° C., 10° C., 20° C., 25° C., 34° C., 40° C.) in a temperature-controlled incubator (Lovibond TC 135S, Tintometer GmbH, Dortmund, Germany) for 3 days (i.e., until equilibrium was reached). The solution was then filtered and the drug content was analyzed by UPLC (Agilent 1200 Infinity LC systems) using a UHPLC ZORBAX Eclipse Plus C18 column (2.1 mm×50 mm; 1.8 m). The mobile phase consisted of acetonitrile and 0.1% formic acid (60:40 v/v) eluted at 1 ml/min. Quantification was based on the peak area measurement by UV absorption at λ=260 nm. After the study, the residual solid in each glass vial was analyzed by DSC and XRPD to check for possible polymorphic transitions during the study. Solubility data were expressed in mole fraction as follows:
# [formula] where n1 is the number of moles of solvent, and n2 is the number of moles of solute.
# In addition to the enthalpy of fusion, equilibrium solubility and the related enthalpy of solution in a given solvent system can offer useful information on the bonding strength within the crystal lattice of a particular polymorph. […] According to the van't Hoff equation, the plot should be linear if the enthalpy of solution term in the equation is truly temperature-independent. […] The extrapolation of two linear plots yielded a transition temperature, Tr, of […] at the intersection point for the two polymorphs. The enthalpy, ΔHII→I, and entropy, ΔSII→I, of polymorphic transition from Form II to Form I were estimated to be −4470.8 J/mol and −5.7 J/mol·K from the slope of the log solubility ratio plot in FIG. 6B and from the relation, ΔSII→I=ΔHII→I/Tr (i.e., when ΔGII→I=0), respectively. The free energies of polymorphic transition, ΔGII→I, from Form II to Form I at 25° C. and 37° C., as defined by the equation, ΔGII→I=ΔHII→I−TΔSII→I, were calculated to be −2771 J/mol and −2703 J/mol, respectively. The solubility of Form II was about 2-3 fold higher than that of Form I in the temperature range studied.
# [2] = Powder dissolution study in 50% v/v aqueous ethanol; type: physicochemical; settings: 25° C.; for solid form of undissolved solid at end of dissolution study (DSC and XRPD): 3-day dissolution study; for initial dissolution rate (in words): initial time period
# Experimental: As an alternative means to compare the solubilities of the three ITZ polymorphs, the dissolution-time profiles of these crystal forms were determined in the same solvent system. According to the Noyes Whitney equation, the dissolution rate per unit surface area of a drug solid in contact with the dissolution medium is directly proportional to its solubility under sink conditions at a constant temperature. Thus the amount of drug dissolved initially over a defined time period can provide an indirect measure of the drug solubility. […] The concentrations of Form I and Form II in dissolution media increased gradually with time and plateaued off after ˜10 h. The maximum drug concentration attained was 2-3 fold higher for Form II than for Form I, consistent with the equilibrium solubility data.
# All powder samples for dissolution testing were first sieved through an 80 mesh-screen (180 μm), and only particles with sizes smaller than 180 m were used. An accurately weighed amount (20±0.2 mg) of each ITZ polymorph or ITZ amorphous powder (made by rapid melt quenching) was dispersed in 25 ml 50% v/v aqueous ethanol with continuous stirring at 100 rpm in a round bottom flask, equilibrated inside a temperature-controlled incubator (Lovibond TC 135S, Tintometer GmbH, Dortmund, Germany) at 25° C. At appropriate time intervals, a 400 μl aliquot of each solution was withdrawn, filtered through 0.22 m membrane filters, and diluted with a suitable amount of 50% v/v aqueous ethanol prior to UPLC analysis. Each sample withdrawn was replaced by the same volume of fresh dissolution medium. The method of drug content detection was the same as described in the preceding section. At the end of the dissolution study, the undissolved solid left in the medium was checked by DSC or XRPD for possible polymorphic transition.
# [3] = Solid-state physical stability of Form III (annealing, ambient handling, grinding; XRPD); type: physicochemical
# Experimental: X-ray powder diffraction (XRPD) data were collected using a powder X-ray diffractometer (Philips, Xpert PRO, The Netherlands) equipped with a Cu radiation source operating at 40 kV and […]. Sample was uniformly packed into a custom-made aluminum holder with a 2 mm depth and scanned from 20 of 3° to 400 at a rate of 4°/min with a step size of 0.017°.
# FIGS. 2A, 2B and 2C show the XRPD patterns for the three different growth zones, respectively. […] The third zone, termed Form III, was characterized by signature peaks at approximately 11.9°, 16.7°, 17.4°, 18.7°, 19.1°, 20.0°, and 21.1°, indicative of a new crystal form, which has not been reported previously. […] The morphologies of Form I and II were similar and almost indistinguishable. Form III only existed in the bulk of recrystallized ITZ (FIG. 1C). All of the three forms grew as spherulites at temperatures below 110° C. (FIG. 1D). At temperatures above 110° C., Forms I and II grew as separate faceted crystals (FIGS. 1E and 1F), whereas Form III transformed to Form II. The latter was further substantiated by annealing Form III at 100° C. and 120° C.
# Samples of ITZ polymorphs recrystallized from melt on glass coverslips were first examined by HSM. […] (FIGS. 3B and 3C). Further heating led to melting of Form II at 158° C. (FIG. 3D), and eventually melting of Form I at around 167° C. (FIG. 3E). To gain further insight into the thermal behaviors and melting properties of the different polymorphs, DSC analyses were conducted and the respective thermograms are presented in FIG. 4A. Form I melted at 165.1° C., which is in excellent agreement with the melting point of the commercial ITZ form (Form I). The melting point of Form II (155.7° C.) is the same as that described previously. The measured molar enthalpy of fusion, ΔH^f, of Form II was 60.6±1.7 kJ/mol, which is less than that (ΔH^f=68.6±1.5 kJ/mol) of Form I. The molar entropy of fusion, ΔS^f, of Form II (141±4 J/mol·K) was also less than that of Form I (ΔS^f=156±4 J/mol·K). […] At low scanning rate, e.g., 10° C./min, a small exothermic peak appeared at ˜120° C. (which possibly reflects the transition of Form III to Form II), followed by an endotherm at ˜156° C., corresponding to the melting of Form II. At higher heating rates, e.g., 40° C./min, the melting endotherm of Form III started to emerge at 119.4° C., followed by a relatively small endotherm at a higher temperature, which can be attributed to the melting of recrystallized Form II from the Form III melt. Due to the co-existence of Form III and/or its melt, this Form II was seen to melt at a lower temperature than its phase pure counterpart (m.p. ˜156° C.). […]
# [4] = pH 7.4; cited from earlier work
Compound,molar enthalpy of solution [1],time at which concentration in dissolution medium plateaued off [2],maximum/peak drug concentration relative to that of Form I [2],solid form of undissolved solid at end of dissolution study (DSC and XRPD) [2],initial dissolution rate (in words) [2],also measured
"CCC(C)n1ncn(-c2ccc(N3CCN(c4ccc(OC[C@H]5CO[C@](Cn6cncn6)(c6ccc(Cl)cc6Cl)O5)cc4)CC3)cc2)c1=O (mixture of isomers) [Form I, itraconazole]",55.8 (±2.8) kJ/mol,~10 h,,maintained their original crystal structures; also recorded: remained unchanged,,
"CCC(C)n1ncn(-c2ccc(N3CCN(c4ccc(OC[C@H]5CO[C@](Cn6cncn6)(c6ccc(Cl)cc6Cl)O5)cc4)CC3)cc2)c1=O (mixture of isomers) [amorphous form, itraconazole]",,,,converted to Form I,increased most rapidly,solid form of undissolved solid at end of dissolution study (DSC and XRPD) ([2]; listed as amorphous material): converted to Form I; dissolved drug concentration level after initial drop ([2]; after 50 h): equivalent to the equilibrium solubility of Form I
"CCC(C)n1ncn(-c2ccc(N3CCN(c4ccc(OC[C@H]5CO[C@](Cn6cncn6)(c6ccc(Cl)cc6Cl)O5)cc4)CC3)cc2)c1=O (relative stereo) [ITZ, (2R,4S)-rel-1-(Butan-2-yl)-4-{4-[4-(4-{[(2R,4S)-2-(2,4-dichlorophenyl)-2-(1H-1,2,4-triazol-1-ylmethyl)-1,3-dioxolan-4-yl]methoxy}phenyl)piperazin-1-yl]phenyl}-4,5-dihydro-1H-1,2,4-triazol-5-one]",,,,,,water-solubility [4]: 1 ng/mL

# More lines, main results first:
molar enthalpy of solution [1],time at which concentration in dissolution medium plateaued off [2],maximum/peak drug concentration relative to that of Form I [2],Compound,solid form of undissolved solid at end of dissolution study (DSC and XRPD) [2],initial dissolution rate (in words) [2],also measured
51.3 (±2.9) kJ/mol,~10 h,2-3 fold,"CCC(C)n1ncn(-c2ccc(N3CCN(c4ccc(OC[C@H]5CO[C@](Cn6cncn6)(c6ccc(Cl)cc6Cl)O5)cc4)CC3)cc2)c1=O (mixture of isomers) [Form II, itraconazole]",maintained their original crystal structures; also recorded: remained unchanged,,"enthalpy, ΔHII→I, of polymorphic transition from Form II to Form I [1]: -1.0685 kcal/mol; entropy, ΔSII→I, of polymorphic transition from Form II to Form I [1]: −5.7 J/mol·K; transition temperature, Tr, of Form I and Form II [1]: 497.8 °C; solubility relative to that of Form I ([1]; 3 days): 2-3 fold"
,,about 7 fold,"CCC(C)n1ncn(-c2ccc(N3CCN(c4ccc(OC[C@H]5CO[C@](Cn6cncn6)(c6ccc(Cl)cc6Cl)O5)cc4)CC3)cc2)c1=O (mixture of isomers) [Form III, itraconazole]",converted to Form I,dissolved much more rapidly than the other two forms,phase stability on annealing (XRPD) ([3]; 100° C. for 10 hours): no such phase transition; phase stability on annealing (XRPD) ([3]; 120° C. for 10 hours): conversion to Form II; crystal structure after grinding (XRPD) ([3]; grinding with pestle and mortar): remained unchanged in crystal structure; physical stability at ambient conditions ([3]; scraping from glass coverslip for XRPD analysis): stable at ambient conditions; time of peak drug concentration [2]: ~15 h

# Reference: patent publication US9855248B2, “Polymorph of itraconazole with improved pharmaceutical properties” (The Chinese University of Hong Kong, priority 2016, dated 2018)
